According to PubChem BioAssay (NCI):
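1) Cells in 96-well plates. 2) Compound, 48 h, 5 concentrations. 3) Linear interpolation between surrounding doses. 4) Unreached endpoint = highest concentration. GI50 is the concentration that inhibits growth by half. Definition used: TGI = concentration required for complete inhibition of growth.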

Legend:
Assay in all cases: inhibition of tumour cell growth, NCI panel, 48 h
DLD-1 colon = test system: DLD-1 colon
SNB-78 CNS = test system: SNB-78 CNS
M19-MEL melanoma = test system: M19-MEL melanoma
DMS 273 small cell lung = test system: DMS 273 small cell lung
DMS 114 small cell lung = test system: DMS 114 small cell lung
HOP-18 NSCLC = test system: HOP-18 NSCLC
XF 498 CNS = test system: XF 498 CNS
RXF-631 renal = test system: RXF-631 renal
MDA-N = test system: MDA-N

| Compound | TGI (DLD-1 colon) | TGI (SNB-78 CNS) | TGI (M19-MEL melanoma) | TGI (DMS 273 small cell lung) | TGI (DMS 114 small cell lung) | TGI (HOP-18 NSCLC) | TGI (XF 498 CNS) | TGI (RXF-631 renal) | TGI (MDA-N) | GI50 (MDA-N) | GI50 (DLD-1 colon) | GI50 (M19-MEL melanoma) | GI50 (DMS 273 small cell lung) |
| --- | --- | --- | --- | --- | --- | --- | --- | --- | --- | --- | --- | --- | --- |
| CC1(C)NC(=O)N(CCCCCCN2C(=O)NC(C)(C)C2=O)C1=O | > 100 µM | > 100 µM | > 100 µM | > 100 µM | > 100 µM | > 100 µM |  |  |  |  |  |  |  |
| OCC1OC2c3ccccc3COC2C1OCc1ccccc1 (stereo not drawn) | > 100 µM | > 100 µM | > 100 µM |  | > 100 µM | > 100 µM | > 100 µM | > 100 µM |  |  |  |  |  |
| O=C(Cc1ccccc1[N+](=O)[O-])C(CO)c1ccccc1[N+](=O)[O-] (stereo not drawn) | > 100 µM | > 100 µM | > 100 µM | > 100 µM | > 100 µM | > 100 µM | > 100 µM |  |  |  |  |  |  |
| N#CCCN(CCC#N)c1ccc(/C=C(/NC(=O)c2cc([N+](=O)[O-])ccc2Cl)C(=O)NN)cc1 | > 100 µM | > 100 µM | > 100 µM | > 100 µM |  | > 100 µM |  |  |  |  |  |  |  |
| CC(=O)c1ccccc1NC(=O)C(=O)C(C(=O)c1ccc2ccccc2c1)C1OC(=O)c2ccccc21 (stereo not drawn) | 32.3 µM | 84.8 µM | 22.8 µM | 44.5 µM | 43 µM | 38.7 µM | 18.1 µM |  |  |  |  |  |  |
| CC1CCCC(C(=O)CC2CC(=O)NC(=O)C2)C1=O (stereo not drawn) |  |  |  |  |  |  |  |  | > 100 µM |  |  |  |  |
| COC(=O)C12CCC(C)(C)CC1C1=CCC3C4(C)CC(O)C(O)C(C)(C(=O)OC)C4CCC3(C)C1(CO)CC2 (stereo not drawn) |  |  |  |  |  |  |  |  | 26.3 µM |  |  |  |  |
| COC(=O)Cc1c([C@@]2(C)CCCC(C)(C)C2)ccc2c1C(=O)OC2 | 12.2 µM | 37.3 µM | 69.6 µM | 21 µM | 20.4 µM | 47.1 µM |  | 29.4 µM |  |  |  |  |  |
| N#CC1C[C@@H]2CC3(CCC2CN1C(=O)c1ccccc1)OCCO3 (stereo partly drawn) | > 100 µM | > 100 µM | > 100 µM | > 100 µM | > 100 µM | > 100 µM | > 100 µM |  |  |  |  |  |  |
| N/C=N/S(=O)(=O)c1ccc(NC(=O)COC(=O)c2cccc3c(=O)c4ccccc4[nH]c23)cc1 | > 100 µM |  | > 100 µM | > 100 µM | > 100 µM | > 100 µM | > 100 µM |  |  |  |  |  |  |
| O=[N+]([O-])c1cc(-c2nc(=S)[nH][nH]2)ccc1O | > 100 µM | > 100 µM | > 100 µM | > 100 µM | 86.8 µM |  |  | > 100 µM |  |  |  |  |  |
| CC1CCC2C(C)C(=O)OC3OC4(C)CCC1C32OO4 (stereo not drawn) |  | > 100 µM | > 100 µM | > 100 µM | > 100 µM | > 100 µM | > 100 µM | > 100 µM | > 100 µM | > 100 µM |  |  |  |
| NC1N=Nc2ccccc21 (stereo not drawn) | > 100 µM |  | > 100 µM | > 100 µM | > 100 µM |  | > 100 µM | > 100 µM |  |  |  |  |  |
| N#CC(C#N)=CNCCN1CCN(C=C(C#N)C#N)CC1 |  |  |  |  |  |  |  |  | > 100 µM |  |  |  |  |
| COc1ccc2c(c1)[n+]([O-])c(-c1cccc(Cl)c1)c(N)[n+]2[O-] | > 100 µM | > 100 µM | > 100 µM | > 100 µM | 65.8 µM | > 100 µM | > 100 µM |  |  |  |  |  |  |
| Cc1cc(Cl)nc2ccc(Cc3ccc4nc(Cl)cc(C)c4c3)cc12 |  |  |  |  |  |  |  |  | > 100 µM |  |  |  |  |
| O=C(NC(=Nc1ccccc1)SCSC(=Nc1ccccc1)NC(=O)c1ccco1)c1ccco1 | > 100 µM | > 100 µM | > 100 µM | > 100 µM | > 100 µM |  | 66.1 µM | > 100 µM |  |  |  |  |  |
| O=C(CCC(=O)Nc1ccc(Cl)c(Cl)c1)CC(=O)c1ccc2ccccc2c1 | > 100 µM | > 100 µM | > 100 µM | > 100 µM | > 100 µM | > 100 µM |  | > 100 µM |  |  |  |  |  |

| Compound | TGI (DLD-1 colon) | TGI (SNB-78 CNS) | TGI (M19-MEL melanoma) | TGI (DMS 273 small cell lung) | TGI (DMS 114 small cell lung) | TGI (HOP-18 NSCLC) | TGI (XF 498 CNS) | TGI (RXF-631 renal) | TGI (MDA-N) | GI50 (MDA-N) | GI50 (DLD-1 colon) | GI50 (M19-MEL melanoma) | GI50 (DMS 273 small cell lung) |
| --- | --- | --- | --- | --- | --- | --- | --- | --- | --- | --- | --- | --- | --- |
| COc1ccc(Nc2nc3cc(C(F)(F)F)ccc3nc2-c2ccccc2)cc1OC | > 100 µM | 66.7 µM |  | 21.8 µM | 41.4 µM |  | 11.2 µM |  |  |  |  |  |  |
| COC(=O)Oc1nn(C(=O)OC)c(=O)c2ccccc12 |  |  |  |  |  |  |  |  | > 100 µM |  |  |  |  |
| CN1C(=O)CC2(C)c3cc(O)cc(Br)c3N(C)C12 (stereo not drawn) |  | > 100 µM | > 100 µM |  | > 100 µM | > 100 µM | > 100 µM |  |  |  |  |  |  |
| C/C(CCn1[nH]c(=O)ccc1=O)=N\NC(=O)C(N)=O | > 100 µM | > 100 µM | > 100 µM | > 100 µM | > 100 µM | > 100 µM | > 100 µM |  |  |  |  |  |  |
| O=C1C(=c2ccc(=C3C(=O)c4ccc([N+](=O)[O-])cc4[N+]3=O)cc2)N([O-])c2cc([N+](=O)[O-])ccc21 | > 100 µM | > 100 µM | > 100 µM | > 100 µM |  | > 100 µM |  |  |  |  | > 100 µM | > 100 µM | > 100 µM |
| O=C(O)CN(c1ccccc1)S(=O)(=O)c1cccc([N+](=O)[O-])c1 | > 100 µM |  | > 100 µM | > 100 µM |  | > 100 µM | > 100 µM |  |  |  |  |  |  |
| COc1cccc(C=O)c1C(=O)c1cc(O)ccc1O | 30.3 µM | > 60.8 µM | 79.8 µM | > 100 µM | > 48.2 µM | 76.5 µM | > 100 µM |  |  |  |  |  |  |
| [O-]/N=[N+](/[O-])C1CCCCC1=[N+]1CCOCC1 (stereo not drawn) |  | > 100 µM | > 100 µM |  | > 100 µM |  | > 100 µM |  |  |  |  |  |  |
| O=C(C=Nc1ccccc1C(=O)[O-])c1cccs1.O=C(C=Nc1ccccc1C(=O)[O-])c1cccs1.[Ni+2] |  |  | > 100 µM |  |  |  |  |  |  |  |  | 31.1 µM |  |
| COc1cc2c(cc1OC)C(C#N)N(C(=O)c1ccccc1)C=C2OC(=O)c1ccccc1 (stereo not drawn) | > 100 µM | 76.6 µM | 90.5 µM | 45.4 µM | 89.2 µM | 46.6 µM | 47.7 µM |  |  |  |  |  |  |
| Cc1cc(=O)[nH]c(CNC(=O)c2ccc3ccccc3c2)n1 | > 100 µM |  | > 100 µM | > 100 µM | > 100 µM | > 100 µM | > 100 µM | > 100 µM |  |  |  |  |  |
| CCc1ccccc1NC(=O)C(=O)C(C#N)c1ccccc1Cl (stereo not drawn) | > 100 µM | > 100 µM | > 100 µM |  | > 100 µM | > 100 µM | > 100 µM | > 100 µM |  |  |  |  |  |
| Fc1cc(F)c(F)c(S)c1F |  |  |  |  |  |  |  |  | > 100 µM |  |  |  |  |
| O=Cc1cccc2ccc3ccccc3c12 |  |  |  |  |  |  |  |  | 73.2 µM |  |  |  |  |
| ClCCCSSCCCCl |  |  |  |  |  |  |  |  | 49.7 µM |  |  |  |  |
| COC(=O)C1=COC2OC3C(C(C)O)C(=O)OC34C=CC1C24 (stereo not drawn) |  |  |  |  |  |  |  |  | > 100 µM |  |  |  |  |
| COC(=O)C1CSC(c2csc(CCN)n2)=N1 (stereo not drawn) |  | > 100 µM | > 100 µM | > 100 µM | > 100 µM | > 100 µM | > 100 µM |  |  |  |  |  |  |
| O=C(COc1ccccc1Cl)N1N=C(c2ccccc2)CC1(O)c1ccccc1 (stereo not drawn) | 53.7 µM | 43.2 µM | 41.6 µM | 31.8 µM |  |  | 35.5 µM |  |  |  |  |  |  |
